Measurements reported in US20010012854A1, “MULTICATALYTIC PROTEASE INHIBITORS FOR USE AS ANTI-TUMOR AGENTS” (priority 1997, published 2001).

What was measured:
[1] = tested on: osteosarcoma cell line U2OS; experiment: Detachment and apoptosis in U2OS cells; assay type: cell-based, human; details: U2OS (data not shown)
Protocol: (§1) c. Treatment of cells with MCP inhibitor. Cells were treated with a specified MCP Inhibitor, a standard anticancer agent (etoposide or cisplatin), or DMSO (vehicle). During this process, morphological changes and cellular detachment (for attached cell lines) were monitored. At each time point, cells were harvested, and used for measurement of apoptosis and other biochemical events. In Example 1, infra, involving YVAD-CMK, Compound A was first added to Jurkat T cells. This was followed immediately by dividing the cells into multiple tissue culture flasks. YVAD-CMK was then added to an indicated concentration.
(§2) d. Flow cytometry nuclear staining and DNA fragmentation assays. DNA content analysis using flow cytometry was performed as described previously (Nicoletti, I., et al. J. Immunol. Methods 139:271-279, 1992). To assay nuclear morphology, cells were washed with PBS, fixed with 70% ethanol for 1 h, and stained with Hoechst 33258 (1 mM) for 30 min. The nuclear morphology of cells was visualized by fluorescence microscope (OLYMPUS BH2). DNA fragmentation was assayed as described previously (Grant, S., et al. Cancer Res. 52:6270-6278, 1992).

[2] = tested on: human breast cancer MCF-7 cells; experiment: Detachment and apoptotic nuclear changes in MCF-7 cells; assay type: cell-based; details: MCF-7, 24 h
Protocol: as §1, §2
Detachment was also found in at least half of human breast cancer MDA-MB-231 and MCF-7 cells, after exposure to Compound A for 24 h.

[3] = tested on: Jurkat cells transfected with a control vector; experiment: Apoptotic nuclear changes (Hoechst staining) in Jurkat cells transfected with control vector; assay type: cell-based, human
Protocol: (§3) b. Cell culture. Human Jurkat T and HL-60 cells were grown in RPMI 1640 (Life Technologies, Inc.) supplemented with 10% fetal calf serum (Sigma), 100 units/ml of penicillin, 100 μg/ml of streptomycin and 2mM L-glutamine (growth medium). Jurkat T. cells overexpressing the Bcl-2 oncoprotein or vector alone (provided by Dr. D. Johnson, University of Pittsburgh, Pa.) were grown in the same growth medium with […] G418. Human cancer cell lines of breast (MCF-7, MDA-MB-231), prostate (DU145, PC3) and osteosarcoma (U2-OS), obtained from American Type Culture Collection (ATCC. Rockville, Md.)), were also grown in the RPMI growth medium. Human oral (SCC-25; from ATCC) and brain (SNB-19; Welch, W. C., et al. In Vitro Cell. Dev. Biol., 31:610-616, 1995) cancer cell lines, and normal (WI-38) and SV40-transformed human fibroblasts (WI-38 VA-13; from ATCC) were grown in DMEM medium containing 10% fetal calf serum, penicillin, streptomycin and L-glutamine.
as §2
The apoptosis-inducing potency of Compound A was compared with two standard chemotherapeutic anti-cancer agents, etoposide and cisplatin. […] By comparison, treatment with 50 μM etoposide for 8 h induced only ˜47% of these cells to undergo apoptosis (FIG. 3, panels c vs. a). Treatment of 10 μM Compound A, but not etoposide or cisplatin, induced apoptosis in human prostate, breast, tongue and brain cancer cells and also in SV40 DNA virus-transformed human fibroblasts (see FIGS. 5-7).

[4] = tested on: human prostate cancer DU145 cells; experiment: Detachment and apoptotic nuclear changes in DU145 cells; assay type: cell-based; details: DU145, 16 h
Protocol: as §1, §2
Similar to PC-3, about half of human prostate cancer DU145 cells became detached after exposure to Compound A for 16 h.

[5] = target: T1, MCP chymotrypsin-like activity (Homo sapiens, UniProt P28074); experiment: Inhibition of MCP chymotrypsin-like activity; assay type: biochemical
Excerpt: The rank-order potency for Jurkat cell killing precisely matched the order for MCP inhibition (Table 2, below).
Inhibition of the chymotrypsin-like activity of MCP by the disclosed MCP inhibitors has been reported, but these MCP inhibitors produced relatively little inhibition on the MCP trypsin-like activity and cathepsin B, a vacuolar cysteine protease (Iqbal, M., et al. J. Med Chem. 38: 2276-2277, 1995; Iqbal, M., et al. Bioorg. Med. Chem. Lett. 6: 287-290, 1996; and Harding, C. V., et al. J. Immuno. 155: 1767-1775, 1995). Furthermore, the order of potency for inhibition of the chymotrypsin-like activity was reported to be Compound A>Compound B>Compound C by using both isolated MCP and intact murine B cells (Iqbal, M., et al. J. Med Chem. 38: 2276-2277, 1995; Iqbal, M., et al. Bioorg. Med. Chem. Lett. 6: 287-290, 1996; and Harding, C. V., et al. J. Immuno. 155: 1767-1775, 1995).

[6] = tested on: Bcl-2-overexpressing Jurkat cells; experiment: Apoptosis in Bcl-2-overexpressing Jurkat cells (nuclear staining, western blot); assay type: cell-based, human
Protocol: as §3, §2
(§4) e. Whole cell extracts and western blot assay. To prepare whole cell extracts, cells were washed with PBS, and homogenized in lysis buffer (50 mM Tris, pH 8.0, 5 mM EDTA, 150 mM NaCl, 0.5% Nonidet P-40, 0.5 mM PMSF and 0.5 mM dithiothreitol). Following 30 min rocking at 4° C., the lysates were centrifuged and the supernatants were collected as whole cell extracts. The protein samples were then analyzed by sodium dodecyl sulfate-6% polyacrylamide gel electrophoresis (20-60 μg protein per lane) followed by the enhanced chemiluminescence Western blot assay using specific antibodies to CPP32, PARP, p21, p27 or RB.
It has been shown that overexpression of Bcl-2 oncoprotein inhibits apoptosis in many cell systems (Miura, M., et al., J. Cell 75: 653-660, 1993). Bcl-2 expression in human Jurkat T cells for inhibition of Compound A-induced apoptosis was investigated.

[7] = target: T1, MCP chymotrypsin-like activity; details: literature values (Iqbal et al.; Rock et al.); read-out: Ki toward the proteasome chymotrypsin-like activity; cited from earlier work
[8] = tested on: Normal human fibroblast cell line (WI-38); experiment: Detachment, apoptotic nuclear changes and PARP cleavage in normal fibroblasts; assay type: cell-based
Protocol: as §1, §2, §4
Whether Compound A has, any selectivity in induction of apoptosis between transformed and normal cells was investigated. Normal human fibroblast cell line (WI-38) and its SV40-transformed derivative (WI-38 VA13) were utilized. […]

## CC(C)C[C@@H](C=O)NC(=O)[C@@H](CCCNC(=N)N[N+](=O)[O-])NC(=O)C(CCCCCCCCN1C(=O)c2ccccc2C1=O)C1CCCC1 (some centres unmarked) [Compound A]
[1]
  Induction of cellular detachment and apoptosis: induced cellular detachment and apoptosis
[2]
  Apoptosis by nuclear staining: apoptotic morphology in all of the detached and most of the attached cells
  Detached cells: at least half
[3]; 15 μM, 8 h
  Cells exhibiting apoptotic nuclear morphology: 30%
[3]; 30 μM, 3.5 h
  Cells exhibiting apoptotic nuclear changes: ~100%
[4]
  Detached cells: about half
  Nuclear morphology: Almost all the detached and even the attached DU145 cells exhibited apoptosis-specific nuclear morphology
[5]
  IC50: 2 nM
[6]; 15 μM
  Effect of Bcl-2 overexpression on induced PARP cleavage and p112-115/RB production: failed to block cleavage of PARP and production of p112-115/RB
[6]; 15 μM, 8 h
  Effect of Bcl-2 expression on induced apoptotic nuclear changes: did not inhibit the apoptotic nuclear changes
[6]; Bcl-2-overexpressing Jurkat, 30 μM, 3.5 h
  Cells exhibiting apoptosis-specific nuclear morphology: ~100%
[7]
  Ki: < 2 nM
[8]; normal WI-38, 10 μM, up to 22 h
  Detachment and apoptotic nuclear changes: did not induce either detachment or apoptotic nuclear morphology
[8]; normal WI-38, total cell population
  PARP cleavage: not in the normal
